We go through two molecules from the NIST ThermoML archive (doi:10.1021/je100081v).

Molecules are shown by their SMILES. ± gives the expanded uncertainty stated by the source.

The conditions of this data set: Liquid.

For orientation: vapor or sublimation pressure means the pressure of vapour in equilibrium with the condensed phase. As to `OCCO` [1,2-ethanediol], the “vapor or sublimation pressure” value (469.15 K) was 101.32 ± 0.19 kPa.

For the molecule `O=CN1CCOCC1` [N-formylmorpholine], the “vapor or sublimation pressure” value (509.95 K) is recorded as 101.32 ± 0.2 kPa.
